In patent publication US20240218022A1, “ANTI-VISTA MACROCYCLIC PEPTIDES AND COMPOSITIONS” (BRISTOL-MYERS SQUIBB COMPANY, priority 2022, published 2024) one finds IC50 data, which are given here for 13 molecules.

This experiment deals with T1, mouse VISTA (mVISTA) (Mus musculus, UniProt Q9D659).
T1 construct: expressed in transfected cells; host or cells: Human embryonic kidney 293T cells
T1 sequence (Q9D659 33-308): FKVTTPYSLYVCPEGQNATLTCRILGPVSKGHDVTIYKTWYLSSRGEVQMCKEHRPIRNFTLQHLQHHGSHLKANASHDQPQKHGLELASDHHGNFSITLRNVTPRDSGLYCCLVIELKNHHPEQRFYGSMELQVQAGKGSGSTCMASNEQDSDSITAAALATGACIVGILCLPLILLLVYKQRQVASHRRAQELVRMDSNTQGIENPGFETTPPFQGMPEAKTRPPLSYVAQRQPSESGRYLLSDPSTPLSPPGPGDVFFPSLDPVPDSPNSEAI
The experiment in a line: Cell-Based Binding High-Content Assay For mVISTA (HC CBA mVISTA). The essentials: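 293T cells expressing mouse VISTA, with compounds added either after seeding ("no wash") or before seeding and then washed out after 1 h. Biotinylated peptide 2 nM for 30 min at room temperature, then detection with Alexa 647–streptavidin. After fixation with Hoechst stain, plates were high-content imaged; IC50 from four-parameter logistic fit.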

[1] abbreviates: cell-based binding high-content assay, mVISTA, the 16th table, read-out: HC CBA mVISTA IC50.
Where [2] appears, read: cell-based binding high-content assay, mVISTA, read-out: HC CBA miPrISTA IC50.

pIC50: −log10 of the molar value. Read-outs that look alike come from different tables or passages of the source. Starred links: 1 amine or outer side, 2 acyl side, 3 side chain; linkers in the order of their positions; H or OH if unused. Positions of bridges follow the written chain, without caps; N, C: chain ends. Non-standard residues stand in square brackets, D forms with d. Residues, ends and D or L forms follow the SMILES beside them. Phe(3-Me) = Cc1cccc(C[C@H](N)C(=O)O)c1; γGlu = O=C(O)[C@H](CCC(=O)[*:2])N[*:1]; 2Nal = N[C@@H](Cc1ccc2ccccc2c1)C(=O)O; βAsp = O=C(O)[C@H](CC(=O)[*:2])N[*:1]; Cit = NC(=O)NCCC[C@H](N)C(=O)O; NMeL = CN[C@@H](CC(C)C)C(=O)O; Ahp(2) = CCCCC[C@H](N)C(=O)O; NMeNle = CCCC[C@H](NC)C(=O)O; Tle = CC(C)(C)[C@H](N)C(=O)O; NMeV = CN[C@H](C(=O)O)C(C)C; NMeS = CN[C@@H](CO)C(=O)O; Pip = O=C(O)[C@@H]1CCCCN1; NHexGly = CCCCCCNCC(=O)O; Nle = CCCC[C@H](N)C(=O)O; Aun = NCCCCCCCCCCC(=O)O; AEEA = NCCOCCOCC(=O)O

Usually pIC50 stands for the negative decadic logarithm of the IC50, by convention in mol/L. As to `CCCCCCN1CC(=O)N[C@@H](Cc2ccc(O)cc2)C(=O)N[C@@H](CCCC)C(=O)N[C@@H](CC(N)=O)C(=O)N[C@@H](CCCNC(=N)N)C(=O)N[C@@H](CC(C)C)C(=O)N[C@@H](CCCCC)C(=O)N2CCC[C@H]2C(=O)N[C@@H](C(C)C)C(=O)N[C@@H](CC(=O)O)C(=O)N[C@H](C(=O)NCC(=O)O)CSCC(=O)N[C@@H](Cc2ccccc2)C(=O)N[C@@H](Cc2c[nH]c3ccccc23)C(=O)N[C@@H](CC(=O)O)C1=O` [Example 1361] ({CH2CO}-FWD[NHexGly]Y[Nle]NRL[Ahp(2)]PVDCG-OH; thioether N-14), the pIC50 (read-out: HC CBA mVISTA IC50) was 8.28.
As to `CCCCCCN1CC(=O)N[C@@H](Cc2ccc(O)cc2)C(=O)N[C@@H](CC(C)C)C(=O)N[C@@H](CC(N)=O)C(=O)N[C@@H](CCCNC(=N)N)C(=O)N[C@@H](CC(C)C)C(=O)N[C@@H](CCCCC)C(=O)N2CCC[C@H]2C(=O)N[C@@H](C(C)C)C(=O)N[C@@H](Cc2c[nH]c3ccccc23)C(=O)N[C@H](C(=O)NCC(=O)O)CSCC(=O)N[C@@H](Cc2ccccc2)C(=O)N[C@@H](Cc2ccc(O)cc2)C(=O)N[C@@H](CC(=O)O)C1=O` [Example 1068] ({CH2CO}-FYD[NHexGly]YLNRL[Ahp(2)]PVWCG-OH; thioether N-14), the negative-log IC50 (pIC50) (293T cells expressing mouse VISTA, competition with biotinylated peptide (2 nM), read-out: HC CBA mVISTA IC50) was 7.40.
Turning to `CCCCCCN1CC(=O)N[C@@H](Cc2ccc(O)cc2)C(=O)N[C@@H](CCCC)C(=O)N[C@@H](CC(N)=O)C(=O)N[C@@H](CCCNC(=N)N)C(=O)N(C)[C@@H](CCCC)C(=O)N[C@@H](CCCCC)C(=O)N2CCC[C@H]2C(=O)N[C@@H](C(C)(C)C)C(=O)N[C@@H](CC(=O)O)C(=O)N[C@H](C(=O)N[C@@H](CC(N)=O)C(=O)O)CSCC(=O)N[C@@H](Cc2ccccc2)C(=O)N[C@@H](Cc2c[nH]c3ccccc23)C(=O)N[C@@H](CC(=O)O)C1=O` [Example 1398] ({CH2CO}-FWD[NHexGly]Y[Nle]NR[NMeNle][Ahp(2)]P[Tle]DCN-OH; thioether N-14), where the note is “read-out: HC CBA mVISTA IC50”, the pIC50 is 7.36.
As to `CCCCCCN1CC(=O)N[C@@H](Cc2ccc(O)cc2)C(=O)N[C@@H](C(C)C)C(=O)NCC(=O)N[C@@H](CCCNC(=N)N)C(=O)N[C@@H](CC(C)C)C(=O)N[C@@H](CCCCC)C(=O)N2CCC[C@H]2C(=O)N[C@@H](C(C)C)C(=O)N[C@@H](CCCNC(=N)N)C(=O)N[C@H](C(=O)NCC(=O)O)CSCC(=O)N[C@@H](Cc2ccc3ccccc3c2)C(=O)N[C@@H](Cc2c[nH]c3ccccc23)C(=O)N[C@@H](CC(=O)O)C1=O` [compound 1230] ({CH2CO}-[2Nal]WD[NHexGly]YVGRL[Ahp(2)]PVRCG-OH; thioether N-14), the negative logarithm of the IC50 (pIC50) (cell-based binding high-content assay, mVISTA, the 15th table, read-out: HC CBA mVISTA IC50) was 8.24.
As for `CCCCCCN1CC(=O)N[C@@H](Cc2ccc(O)cc2)C(=O)N[C@@H](CC(C)C)C(=O)NCC(=O)N[C@@H](CCCNC(=N)N)C(=O)N[C@@H](Cc2ccc(O)cc2)C(=O)N[C@@H](CCCCC)C(=O)N2CCC[C@H]2C(=O)N[C@@H](C(C)C)C(=O)N[C@@H](CO)C(=O)N[C@H](C(=O)NCC(N)=O)CSCC(=O)N[C@@H](Cc2ccc3ccccc3c2)C(=O)N[C@@H](Cc2ccc(O)cc2)C(=O)N[C@@H](CC(=O)O)C1=O` [Ex 1297] ({CH2CO}-[2Nal]YD[NHexGly]YLGRY[Ahp(2)]PVSCG-NH2; thioether N-14), under setting [1], the pIC50 is 7.45.
For the molecule `CCCCCCN1CC(=O)N[C@@H](Cc2ccc(O)cc2)C(=O)N[C@@H](CCCC)C(=O)N[C@@H](CC(N)=O)C(=O)N[C@@H](CCCNC(=N)N)C(=O)N(C)[C@@H](CCCC)C(=O)N[C@@H](CCCCC)C(=O)N2CCC[C@H]2C(=O)N[C@@H](C(C)(C)C)C(=O)N[C@@H](CO)C(=O)N[C@H](C(=O)N[C@@H](CC(=O)NCCOCCOCC(=O)NCCCCCCCCCCC(=O)O)C(=O)O)CSCC(=O)N[C@@H](Cc2ccccc2)C(=O)N[C@@H](Cc2cccc(C)c2)C(=O)N[C@@H](CC(=O)O)C1=O` [Example 2189] ({CH2CO}-F[Phe(3-Me)]D[NHexGly]Y[Nle]NR[NMeNle][Ahp(2)]P[Tle]SC[βAsp][AEEA][Aun]-OH; thioether N-14), for the setting “read-out: HC CBA mVISTA IC50”, the pIC50 was 7.54.
Turning to `CCCCCCN1CC(=O)N[C@@H](Cc2ccc(O)cc2)C(=O)N[C@@H](CCCC)C(=O)N[C@@H](CC(=O)O)C(=O)N[C@@H](CCCNC(=N)N)C(=O)N[C@@H](CC(C)C)C(=O)N[C@@H](CCCCC)C(=O)N2CCC[C@H]2C(=O)N[C@@H](C(C)C)C(=O)N[C@@H](CC(=O)O)C(=O)N[C@H](C(=O)N[C@@H](CO)C(N)=O)CSCC(=O)N[C@@H](Cc2ccccc2)C(=O)N[C@@H](Cc2c[nH]c3ccccc23)C(=O)N[C@@H](CC(=O)O)C1=O` [Example 1366] ({CH2CO}-FWD[NHexGly]Y[Nle]DRL[Ahp(2)]PVDCS-NH2; thioether N-14), where the note is “read-out: HC CBA mVISTA IC50”, the pIC50 was 7.94.
`CCCCCCN1CC(=O)N[C@@H](Cc2ccc(O)cc2)C(=O)N[C@@H](CC(C)C)C(=O)N[C@@H](CC(N)=O)C(=O)N[C@@H](CCCNC(=N)N)C(=O)N(C)[C@@H](C(C)C)C(=O)N[C@@H](CCCCC)C(=O)N2CCC[C@H]2C(=O)N[C@@H](C(C)(C)C)C(=O)N[C@@H](CC(=O)O)C(=O)N[C@H](C(=O)NCCOCCOCC(=O)N[C@@H](CCC(=O)NCCOCCOCC(=O)NCCCCCCCCCCC(=O)O)C(=O)O)CSCC(=O)N[C@@H](Cc2ccccc2)C(=O)N[C@@H](Cc2c[nH]c3ccccc23)C(=O)N[C@@H](CC(=O)O)C1=O` [compound 2276] ({CH2CO}-FWD[NHexGly]YLNR[NMeV][Ahp(2)]P[Tle]DC[AEEA][γGlu][AEEA][Aun]-OH; thioether N-14): the pIC50 (read-out: HC CBA mVISTA IC50) was 7.52.
`CCCCCCN1CC(=O)N[C@@H](Cc2ccc(O)cc2)C(=O)N[C@@H](CC(C)C)C(=O)N[C@@H](CC(N)=O)C(=O)N[C@@H](CCCNC(=N)N)C(=O)N(C)[C@@H](CCCC)C(=O)N[C@@H](CCCCC)C(=O)N2CCC[C@H]2C(=O)N[C@@H](C(C)(C)C)C(=O)N[C@@H](C(C)C)C(=O)N[C@H](C(=O)N[C@@H](CC(=O)NCCOCCOCC(=O)N[C@@H](CC(=O)O)C(=O)NCCOCCOCC(=O)NCCCCCCCCCCC(=O)O)C(=O)O)CSCC(=O)N[C@@H](Cc2ccccc2)C(=O)N[C@@H](Cc2cccc(C)c2)C(=O)N[C@@H](CC(=O)O)C1=O` [compound 2073] ({CH2CO}-F[Phe(3-Me)]D[NHexGly]YLNR[NMeNle][Ahp(2)]P[Tle]VC[βAsp][AEEA]D[AEEA][Aun]-OH; thioether N-14): the pIC50 under setting [2] is 7.48.
For `CCCCCCN1CC(=O)N[C@@H](Cc2ccc(O)cc2)C(=O)N[C@@H](CC(C)C)C(=O)N[C@@H](CC(N)=O)C(=O)N[C@@H](CCCNC(=N)N)C(=O)N(C)[C@@H](CC(C)C)C(=O)N[C@@H](CCCCC)C(=O)N2CCC[C@H]2C(=O)N[C@@H](C(C)(C)C)C(=O)N[C@@H](CO)C(=O)N[C@H](C(=O)NCCOCCOCC(=O)N[C@@H](CCC(=O)NCCOCCOCC(=O)NCCCCCCCCCCC(=O)O)C(=O)O)CSCC(=O)N[C@@H](Cc2ccccc2)C(=O)N[C@@H](Cc2ccc(O)cc2)C(=O)N[C@@H](CC(=O)O)C1=O` [compound 2270] ({CH2CO}-FYD[NHexGly]YLNR[NMeL][Ahp(2)]P[Tle]SC[AEEA][γGlu][AEEA][Aun]-OH; thioether N-14), the pIC50 (read-out: HC CBA mVISTA IC50) is 7.73.
As for `CCCCCCN1CC(=O)N[C@@H](Cc2ccc(O)cc2)C(=O)N[C@@H](CC(C)C)C(=O)N[C@@H](CC(N)=O)C(=O)N[C@@H](CCCNC(=N)N)C(=O)N(C)[C@@H](CO)C(=O)N[C@@H](CCCCC)C(=O)N2CCC[C@H]2C(=O)N[C@@H](C(C)(C)C)C(=O)N[C@@H](CC(=O)O)C(=O)N[C@H](C(=O)N[C@@H](CC(=O)NCCOCCOCC(=O)N[C@@H](CC(=O)O)C(=O)NCCOCCOCC(=O)NCCCCCCCCCCC(=O)O)C(=O)O)CSCC(=O)N[C@@H](Cc2cccc(C)c2)C(=O)N[C@@H](Cc2ccc(O)cc2)C(=O)N[C@@H](CC(=O)O)C1=O` [compound 2071] ({CH2CO}-[Phe(3-Me)]YD[NHexGly]YLNR[NMeS][Ahp(2)]P[Tle]DC[βAsp][AEEA]D[AEEA][Aun]-OH; thioether N-14), the pIC50 under setting [2] is 7.56.
`CCCCCCN1CC(=O)N[C@@H](Cc2ccc(O)cc2)C(=O)N[C@@H](CCCC)C(=O)N[C@@H](CC(N)=O)C(=O)N[C@@H](CCCNC(N)=O)C(=O)N(C)[C@@H](CCCC)C(=O)N[C@@H](CCCCC)C(=O)N2CCCC[C@H]2C(=O)N[C@@H](C(C)C)C(=O)N[C@@H](CO)C(=O)N[C@H](C(=O)NCC(N)=O)CSCC(=O)N[C@@H](Cc2ccccc2)C(=O)N[C@@H](Cc2c[nH]c3ccccc23)C(=O)N[C@@H](CC(=O)O)C1=O` [compound 1146] ({CH2CO}-FWD[NHexGly]Y[Nle]N[Cit][NMeNle][Ahp(2)][Pip]VSCG-NH2; thioether N-14): under “read-out: HC CBA mVISTA IC50”, the pIC50 was 7.66.
For `CCCCCCN1CC(=O)N[C@@H](Cc2ccc(O)cc2)C(=O)N[C@@H](CCCC)C(=O)N[C@@H](CC(N)=O)C(=O)N[C@@H](CCCNC(=N)N)C(=O)N[C@@H](CC(C)C)C(=O)N[C@@H](CCCCC)C(=O)N2CCC[C@H]2C(=O)N[C@@H](C(C)C)C(=O)N[C@@H](CC(=O)O)C(=O)N[C@H](C(=O)N[C@@H](Cc2c[nH]c3ccccc23)C(N)=O)CSCC(=O)N[C@@H](Cc2ccc3ccccc3c2)C(=O)N[C@@H](Cc2ccc(O)cc2)C(=O)N[C@@H](CC(=O)O)C1=O` [Ex 1321] ({CH2CO}-[2Nal]YD[NHexGly]Y[Nle]NRL[Ahp(2)]PVDCW-NH2; thioether N-14), the pIC50 under setting [1] was 7.80.
